Series [1] has as its system P-gp (MDR1). Kind of series: MDCK-MDR1 permeability assay. In kind it is in vitro ADME. Particulars: dog. As to the method:
Permeability measurements were conducted according to the Cyprotex protocol using the MDCK-MDR1 cell line obtained from the NIH (Rockville, Md., USA). Cells between passage numbers 6-30 were seeded onto a Multiscreen Plate™ (Millipore) at a cell density of 3.4×10^5 cells/cm^2 and cultured for three days before permeability studies were conducted. The cells in this assay form a cohesive sheet of a single cell layer filing the surface area of the culture dish, also known as a confluent monolayer, and on day four the test compound was added to the apical side of the membrane and the transport of the compound across the monolayer was monitored over a time period of 60 min.
Test compounds were dissolved in DMSO at a concentration of 10 mM. The dosing solutions were prepared by diluting test compound with assay buffer (Hanks Balanced Salt Solution), pH 7.4, at a final concentration of 5 μM. For assessment of apical to basolateral (“A-B”) permeability, buffer was removed from the apical compartment and replaced with test compound dosing solution with or without the permeability glycoprotein (“PgP”, “P-gP”, “Pgp” or “P-gp”) inhibitor elacridar (2 μM). For assessment of basolateral to apical (“B-A”) permeability, buffer was removed from the companion plate and replaced with test compound dosing solution. Incubations were carried out in duplicate at 37° C. in an atmosphere of 5% CO2 with a relative humidity of 95%. Each assay included the reference markers propranolol (high permeability) and prazosin (PgP substrate). After incubation for 60 minutes, apical and basolateral samples were diluted and test compounds quantified by LC/MS/MS using an 8-point calibration in the range 0.0039 to 3 μM with appropriate dilution of the samples (receiver dilution factor=1; donor and C0 dilution factor=10). The permeability coefficient (Papp) for each compound was calculated from the following equation: Papp=(dQ/dt)/(C0×S), where dQ/dt is the rate of permeation of the drug across the cells, C0 is the donor compartment concentration at time zero, and S is the area of the cell monolayer.
The second and third columns in Table 7 show the values of Papp(A-B) for the apical-to-basolateral compound transport without (second column) and with a P-gp inhibitor (third column, noted as P^eapp(A-B)) that was elacridar. Papp(A-B) gives an indication of permeation extent across the cells in this assay, which is envisaged to model the transcellular transport across Pgp-expressing cells, such as Pgp-expressing gastrointestinal tract cells. P^eapp(A-B) values (Papp(A-B) in the presence of the P-gp inhibitor) given in column 3 are determined to confirm the role of P-gp in the compound efflux. […] Test compound efflux ratios are given in the fifth column of Table 7 as Papp(B-A)/Papp(A-B) by using the corresponding permeability coefficient values from the fourth and second columns in the same table.

Series [2] deals with IFNα pSTAT4 (JAK1/TYK2). Kind of series: IFNα pSTAT4 (JAK1/TYK2) cellular assay (AlphaLISA, PBMCs). It counts as cell-based. Particulars: PBMC, IFNα at 4 ng/mL. Here is the method: The AlphaLISA assay (based on Alpha Technology from PerkinElmer) was performed by first plating freshly thawed PBMCs (Biological Specialty Corporation) in 384-well plates at 100,000 cells per 6 μL per well in DMEM (Dulbecco's Modified Eagle Medium) containing 10% FBS (fetal bovine serum) and 1,000 I.U./mL penicillin and 1,000 μg/mL streptomycin. The cells were then treated with 2 μL/well of compounds diluted in DMSO at half-log titrated concentrations, with a highest test concentration of 10 μM and 0.5% final DMSO concentration, for thirty minutes at 37° C. Next, the cells were stimulated with 2 μL/well of IFNα (PBL Assay Science Cat. No. 11101-2) at 4 ng/mL for thirty minutes at 37° C. The cellular reactions were terminated by the addition of 2 μL/well of lysis buffer (PerkinElmer Cat. No. ALSU-PST4-A10K) followed by an incubation of five minutes at room temperature. 4 μL/well of acceptor mix (PerkinElmer Cat. No. ALSU-PST4-A10K) was added to the cells and incubated in the dark for one hour at room temperature. Then, 4 μL/well of donor mix (PerkinElmer Cat. No. ALSU-PST4-A10K) was added to the cells and incubated in the dark overnight at room temperature. Finally, the plates were read on a PerkinElmer EnVision for detection of the time-resolved fluorescence signal. The percentage of IFNα-dependent pSTAT4 inhibition was determined at the compound test concentrations; and for each compound, a dose curve was generated and the IC50 was calculated. Compound IC50 was calculated by nonlinear regression, sigmoidal dose response analysis of the half-log dilution titration curve of the compound concentration vs. Alpha signal. The term “Alpha” is defined in the immediately preceding cellular assay description.

The nature of series [3]: Solubility assays in simulated gastric and simulated intestinal fluids. It counts as physicochemical. Particulars: thermodynamic from solid, 2-5 days. As to the method:
Test compounds were dissolved in DMSO at a concentration of 10 mM. The test compounds were dispensed (20 μL) into Nunc 1-mL-96-Deep-Well-PP plates, and the DMSO was evaporated via nitrogen blow down from a TurboVap 96 for 6 hours or until a dry residue was produced. Then, 400 μL of solubility media was added to the well containing the dry solid. […] After the incubation period, the samples were filtered through an AcroPrep 1-mL-96-Filter plate into a new 2-mL-96-Deep-Well-PP plate, and the supernatants were quantified by UV-HPLC using a 3-point calibration ranging from 0.004-0.55 mM. The solubility for each compound was calculated from the following equation: […] Solubilities are reported as long as the compound under study was sufficiently stable to complete the corresponding solubility determination.

For series [4], the system named is IL-2 pSTAT5 (JAK1/JAK3). Put plainly: IL-2 pSTAT5 (JAK1/JAK3) cellular assay (AlphaLISA, PBMCs). In kind it is cell-based. Particulars: PBMC, IL-2 at 5 ng/mL. As to the method:
The AlphaLISA assay (based on Alpha Technology from PerkinElmer) was performed by first plating freshly thawed PBMCs (Biological Specialty Corporation) in 384-well plates at 30,000 cells per 4 μL per well in HBSS (Hanks' Balanced Salt Solution) containing 0.1% IgG (immunoglobulin G)-free, protease-free BSA (bovine serum albumin) (Jackson ImmunoResearch Cat. No. 001-000-161). The cells were then treated with 2 μL/well of compounds diluted in DMSO at half-log titrated concentrations, with a highest test concentration of 10 μM and 0.5% final DMSO concentration, for thirty minutes at 37° C. […] Compound IC50 was calculated by nonlinear regression, sigmoidal dose response analysis of the half-log dilution titration curve of the compound concentration vs. Alpha signal. The acronym “Alpha” stands for amplified luminescent proximity homogeneous assay; the Alpha signal is a luminescent/fluorescent signal.

The structures appear in SMILES notation. Where two headings read alike, the source gives them in different places. A value given as a limit tells only on which side of the number the result lay.

Turning to `N#CC[C@H]1CC[C@H](n2c(CC(=O)NCC3(O)CC3)nc3cnc4[nH]ccc4c32)CC1` [Ex. 85, 2-(1-((1r,4r)-4-(Cyanomethyl)cyclohexyl)-1,6-dihydroimidazo[4,5-d]pyrrolo[2,3-b]pyridin-2-yl)-N-((1-hydroxycyclopropyl)methyl)acetamide], in series [1] (MDCK-MDR1, pH 7.4, @ 5 μM, apical to basolateral, without P-gp inhibitor), the Papp A→B at 60 min, 5 μM was less than 0.5 ×10⁻⁶ cm/s. Also, in series [1] (MDCK-MDR1, pH 7.4, @ 5 μM, basolateral to apical), the Papp B→A at 60 min, 5 μM worked out at 1.1 ×10⁻⁶ cm/s. The efflux ratio at 60 min, 5 μM in series [1] (MDCK-MDR1, pH 7.4, MDCK-MDR1, 5 μM, read-out: Papp(B-A)/Papp(A-B) (efflux ratio)) was more than 2.2. For the same compound, the IC50 in series [2] was determined as 0.0814 µM; in series [4] it was 0.0139 µM. Also, the solubility is more than 400 µM in series [3] (fassif, simulated intestinal fluid, fasted state pH 6.5, ambient temperature, read-out: SIF solubility) and more than 400 µM in series [3] (simulated gastric fluid, ambient temperature, read-out: SGF solubility).

Source of the values: patent US10981911B2, “Imidazopyrrolopyridine as inhibitors of the JAK family of kinases” (Janssen Pharmaceutica NV, priority 2016, dated 2021).
